The values below come from patent US20230135093A1, “TRIAZOLYL DERIVATIVES AS GABA A ALPHA5 PAM” (Hoffmann-La Roche Inc., priority 2020, published 2023).

Experiment [1] addresses T1, h-GABA-A α5β3γ2 (Homo sapiens, UniProt P18507+P31644).
T1 construct: expressed in transfected cells; host or cells: Xenopus laevis oocytes, micro-injected with subunit RNA
The experiment is described as follows: [3H]flumazenil competition binding assay on membranes of HEK293 cells expressing GABAA receptors. In short, it runs like this: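 Competition for [3H]flumazenil (0.5 nM for α5 subunits) was measured at equilibrium (1 h, 4 °C, Krebs-tris buffer pH 7.5) on transiently transfected HEK293 membranes bearing human α5β3γ2 receptors, with 10^−5 M diazepam defining nonspecific binding. Ki values were derived from filtration and scintillation counting, averaged over duplicates.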

Experiment [2] deals with T1, h-GABA-A α5β3γ2. The experiment is described as follows: Two-electrode voltage clamp electrophysiology in Xenopus oocytes expressing GABAA receptors (modulation of GABA EC20 current). The class given is cell-based. In short, it runs like this:
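GABA EC20 currents in human α5β3γ2-expressing Xenopus oocytes, voltage-clamped at −80 mV (room temperature, pH 7.4), measured with and without compound at ~30× Ki applied 0.5 min into the second GABA pulse. % modulation = 100×(fold increase−1), taken from the extremum of the current ratio trace; at least 3 oocytes per concentration.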
(In two-electrode clamp one electrode senses voltage and the other passes current.)

The mark [3] stands for this setting: Table 1, displacement of [3H]-Flumazenil (0.5 nM), HEK293 cells expressing human receptors, means of two determinations.
The mark [4] stands for this setting: Table 1, % modulation of GABA EC20 = 100*(Fold increase-1).
Setting [5] is: Table 1, Xenopus oocytes, GABA EC20, test compound at approximatively 30 fold its Ki.

One may read the Ki as a dissociation constant, usually derived from enzyme kinetics or from competition with a known ligand. A higher Ki goes with weaker binding. With `CCOC1CN(c2cnn(Cc3c(-c4ccc(C(F)(F)F)cc4F)nnn3C)c(=O)c2)C1` [Example 72, 5-(3-ethoxyazetidin-1-yl)-2-[[5-[2-fluoro-4-(trifluoromethyl)phenyl]-3-methyl-triazol-4-yl]methyl]pyridazin-3-one], the affinity on h-GABA-A α5β3γ2 [1] (setting [3]) corresponds to a Ki of 0.0194 µM. Besides, the “Efficacy (GABA) %” value at h-GABA-A α5β3γ2 [2] (setting [4]) is 70%. Further, the “Fold increase h-GABA-A α5β3γ2 oocyte” value on h-GABA-A α5β3γ2 [2] (setting [5]) was 1.7.
At h-GABA-A α5β3γ2 [1] (setting [3]), `CCn1nnc(-c2ccc(Cl)cc2F)c1Cn1ncc(N2CC(OCC(F)(F)F)C2)cc1=O` [Example 87, 2-[[5-(4-chloro-2-fluoro-phenyl)-3-ethyl-triazol-4-yl]methyl]-5-[3-(2,2,2-trifluoro-ethoxy)azetidin-1-yl]pyridazin-3-one] gave a Ki of 0.0125 µM. The “Efficacy (GABA) %” value on h-GABA-A α5β3γ2 [2] (setting [4]) came out at 115%. At h-GABA-A α5β3γ2 [2] (setting [5]), the “Fold increase h-GABA-A α5β3γ2 oocyte” value was 2.15.
In the same order, the values of `CCCOC1CN(c2cnn(Cc3c(-c4ccc(Cl)cc4F)nnn3C)c(=O)c2)C1` [Example 51, 2-((5-(4-chloro-2-fluoro-phenyl)-3-methyl-triazol-4-yl)methyl)-5-(3-propoxyazetidin-1-yl)pyridazin-3-one] are 0.0214 µM, 94% and 1.94.
Consider `COc1ccc(-c2cnn(Cc3c(-c4ccc(Cl)cc4F)nnn3C)c(=O)c2)cn1` [Example 62, 2-((5-(4-chloro-2-fluoro-phenyl)-3-methyl-triazol-4-yl)methyl)-5-(6-methoxy-3-pyridyl)pyridazin-3-one], for which the Ki on h-GABA-A α5β3γ2 [1] (setting [3]) stood at 0.0082 µM. In addition, on h-GABA-A α5β3γ2 [2] (setting [4]), the “Efficacy (GABA) %” value was determined as 50%. In addition, on h-GABA-A α5β3γ2 [2] (setting [5]), the “Fold increase h-GABA-A α5β3γ2 oocyte” value worked out at 1.5.
In the same order, the values of `CNc1cnn(Cc2c(-c3ccc(Cl)cc3F)nnn2C)c(=O)c1` [Example 22, 2-[[5-(4-chloro-2-fluoro-phenyl)-3-methyl-triazol-4-yl]methyl]-5-(methylamino)pyridazin-3-one] are 0.0208 µM, 45% and 1.45.
In the same order, the values of `Cc1nnn(-c2ccc(Cl)cc2F)c1Cn1ncc(N2CC(OCC(F)(F)F)C2)cc1=O` [Example 34, 2-[[3-(4-chloro-2-fluoro-phenyl)-5-methyl-triazol-4-yl]methyl]-5-[3-(2,2,2-trifluoro-ethoxy)azetidin-1-yl]pyridazin-3-one] are 0.0442 µM, 85% and 1.85.
In the case of `CCn1nnc(-c2ccc(Cl)cc2F)c1Cn1ncc(N2CC3(CC[C@@H](F)CO3)C2)cc1=O` [Example 125, (R)-2-((4-(4-chloro-2-fluorophenyl)-1-ethyl-1H-1,2,3-triazol-5-yl)methyl)-5-(7-fluoro-5-oxa-2-azaspiro[3.5]nonan-2-yl)pyridazin-3(2H)-one], the affinity on h-GABA-A α5β3γ2 [1] (setting [3]) corresponds to a Ki of 0.0253 µM. Moreover, the “Efficacy (GABA) %” value on h-GABA-A α5β3γ2 [2] (setting [4]) worked out at 69%. Moreover, the “Fold increase h-GABA-A α5β3γ2 oocyte” value on h-GABA-A α5β3γ2 [2] (setting [5]) was found to be 1.69.
In the same order, the values of `Cn1nnc(-c2ccc(Cl)cc2F)c1Cn1ncc(N2CC(OCC(F)F)C2)cc1=O` [Example 54, 2-[[5-(4-chloro-2-fluoro-phenyl)-3-methyl-triazol-4-yl]methyl]-5-[3-(2,2-difluoro-ethoxy)azetidin-1-yl]pyridazin-3-one] are 0.0064 µM, 82% and 1.82.
Compound `Cc1nnn(-c2ccc(Cl)cc2F)c1Cn1ncc(N2CCN(C(=O)C3CC3)CC2)cc1=O` [Example 6, 2-((3-(4-chloro-2-fluoro-phenyl)-5-methyl-triazol-4-yl)methyl)-5-(4-(cyclopropane-carbonyl)piperazin-1-yl)pyridazin-3-one] had an inhibition constant (Ki) on h-GABA-A α5β3γ2 [1] (setting [3]) of 0.0718 µM. In addition, the “Efficacy (GABA) %” value on h-GABA-A α5β3γ2 [2] (setting [4]) is reported as 121%. The “Fold increase h-GABA-A α5β3γ2 oocyte” value on h-GABA-A α5β3γ2 [2] (setting [5]) amounted to 2.21.
`CC(C)OC1CN(c2cnn(Cc3c(-c4ccc(C(F)(F)F)cc4F)nnn3C)c(=O)c2)C1` [Example 70, 2-[[5-[2-fluoro-4-(trifluoromethyl)phenyl]-3-methyl-triazol-4-yl]methyl]-5-(3-isopropoxyazetidin-1-yl)pyridazin-3-one] showed a Ki on h-GABA-A α5β3γ2 [1] (setting [3]) of 0.025 µM. Moreover, the “Efficacy (GABA) %” value at h-GABA-A α5β3γ2 [2] (setting [4]) was 71%. Also, the “Fold increase h-GABA-A α5β3γ2 oocyte” value at h-GABA-A α5β3γ2 [2] (setting [5]) amounted to 1.71.
`Cn1nnc(-c2ccc(F)cc2)c1COc1ccc(C(=O)NN2CCOCC2)nn1` [RO-045, reference compound] yielded a Ki at h-GABA-A α5β3γ2 [1] (Table 2, reference compounds, displacement of [3H]-Flumazenil) of 0.0532 µM. For the same compound, the “Efficacy (GABA) %” value at h-GABA-A α5β3γ2 [2] (Table 2, reference compounds, % modulation of GABA EC20) is −38%. In addition, the “Fold increase h-GABA-A α5β3γ2 oocyte” value on h-GABA-A α5β3γ2 [2] (Table 2, reference compounds, GABAA α5β3γ2 overexpressing oocytes, GABA EC20) was 0.62.
`Cn1nnc(-c2ccc(Cl)cc2F)c1Cn1ncc(N2CC3(CCCO3)C2)cc1=O` [Example 29, 2-[[5-(4-chloro-2-fluoro-phenyl)-3-methyl-triazol-4-yl]methyl]-5-(5-oxa-2-azaspiro[3.4]octan-2-yl)pyridazin-3-one]: at h-GABA-A α5β3γ2 [1] (setting [3]), the affinity corresponds to a Ki of 0.0152 µM. In addition, on h-GABA-A α5β3γ2 [2] (setting [4]), the “Efficacy (GABA) %” value stood at 49%. At h-GABA-A α5β3γ2 [2] (setting [5]), the “Fold increase h-GABA-A α5β3γ2 oocyte” value was 1.49.
In the same order, the values of `Cc1ccc(-c2nnn(C)c2Cn2ncc(N3CCC(C)(C)C3)cc2=O)cn1` [Example 10, 5-(3,3-dimethylpyrrolidin-1-yl)-2-[[3-methyl-5-(6-methyl-3-pyridyl)triazol-4-yl]methyl]pyridazin-3-one] are 0.0044 µM, 201% and 3.01.
As to `Cn1cc(-c2cnn(Cc3c(-c4ccc(Cl)cc4F)nnn3C)c(=O)c2)cn1` [Example 64, 2-((5-(4-chloro-2-fluoro-phenyl)-3-methyl-triazol-4-yl)methyl)-5-(1-methylpyrazol-4-yl)pyridazin-3-one], the Ki at h-GABA-A α5β3γ2 [1] (setting [3]) is 0.0112 µM. Also, the “Efficacy (GABA) %” value on h-GABA-A α5β3γ2 [2] (setting [4]) turned out to be 76%. The “Fold increase h-GABA-A α5β3γ2 oocyte” value at h-GABA-A α5β3γ2 [2] (setting [5]) came to 1.76.
In turn, `CCOc1ccc(-c2cnn(Cc3c(-c4ccc(Cl)cc4F)nnn3C)c(=O)c2)cn1` [Example 103, 2-((5-(4-chloro-2-fluoro-phenyl)-3-methyl-triazol-4-yl)methyl)-5-(6-ethoxy-3-pyridyl)pyridazin-3-one] came in with an inhibition constant Ki on h-GABA-A α5β3γ2 [1] (setting [3]) of 0.0104 µM. In addition, the “Efficacy (GABA) %” value at h-GABA-A α5β3γ2 [2] (setting [4]) is 106%. Further, on h-GABA-A α5β3γ2 [2] (setting [5]), the “Fold increase h-GABA-A α5β3γ2 oocyte” value was found to be 2.06.
In the same order, the values of `COc1ccc(-c2cnn(Cc3c(-c4ccc(Cl)cc4F)nnn3C)c(=O)c2)cc1` [Example 61, 2-((5-(4-chloro-2-fluoro-phenyl)-3-methyl-triazol-4-yl)methyl)-5-(4-methoxyphenyl)pyridazin-3-one] are 0.0026 µM, 52% and 1.52.
In the same order, the values of `Cn1nnc(-c2ccc(C(F)(F)F)cc2F)c1Cn1ncc(N2CC(Oc3ccccn3)C2)cc1=O` [Example 84, 2-[[5-[2-fluoro-4-(trifluoromethyl)phenyl]-3-methyl-triazol-4-yl]methyl]-5-[3-(2-pyridyloxy)azetidin-1-yl]pyridazin-3-one] are 0.0102 µM, 73% and 1.73.
On h-GABA-A α5β3γ2 [1] (setting [3]), `Cc1ccc(-c2nnn(C)c2Cn2ncc(N3CCOC(C)(C)C3)cc2=O)cn1` [Example 11, 5-(2,2-dimethylmorpholin-4-yl)-2-[[3-methyl-5-(6-methyl-3-pyridyl)triazol-4-yl]methyl]pyridazin-3-one] returned a Ki of 0.0012 µM. Also, the “Efficacy (GABA) %” value at h-GABA-A α5β3γ2 [2] (setting [4]) is listed as 48%. Further, the “Fold increase h-GABA-A α5β3γ2 oocyte” value on h-GABA-A α5β3γ2 [2] (setting [5]) is listed as 1.48.
`Cn1nnc(-c2ccc(Cl)cc2F)c1Cn1ncc(-c2cccc(C#N)n2)cc1=O` [Example 107, 6-(1-((5-(4-chloro-2-fluoro-phenyl)-3-methyl-triazol-4-yl)methyl)-6-oxo-pyridazin-4-yl)pyridine-2-carbonitrile] registered a Ki at h-GABA-A α5β3γ2 [1] (setting [3]) of 0.009 µM. In addition, at h-GABA-A α5β3γ2 [2] (setting [4]), the “Efficacy (GABA) %” value amounted to 234%. Besides, the “Fold increase h-GABA-A α5β3γ2 oocyte” value on h-GABA-A α5β3γ2 [2] (setting [5]) came out at 3.34.
In the case of `CCn1nnc(-c2ccc(Cl)cc2F)c1Cn1ncc(-c2cnn(C3CC3)c2)cc1=O` [Example 105, 2-((4-(4-chloro-2-fluorophenyl)-1-ethyl-1H-1,2,3-triazol-5-yl)methyl)-5-(1-cyclopropyl-1H-pyrazol-4-yl)pyridazin-3(2H)-one], the affinity on h-GABA-A α5β3γ2 [1] (setting [3]) corresponds to a Ki of 0.0172 µM. At h-GABA-A α5β3γ2 [2] (setting [4]), the “Efficacy (GABA) %” value is recorded as 111%. Also, the “Fold increase h-GABA-A α5β3γ2 oocyte” value on h-GABA-A α5β3γ2 [2] (setting [5]) is 2.11.
In the case of `Cn1nnc(-c2ncc(C(F)(F)F)cn2)c1Cn1ncc(N2CC(OC(F)F)C2)cc1=O` [Example 121, 5-[3-(difluoromethoxy)azetidin-1-yl]-2-[[3-methyl-5-[5-(trifluoromethyl)pyrimidin-2-yl]triazol-4-yl]methyl]pyridazin-3-one], the affinity on h-GABA-A α5β3γ2 [1] (setting [3]), expressed as Ki, was 0.0248 µM. Also, on h-GABA-A α5β3γ2 [2] (setting [4]), the “Efficacy (GABA) %” value is on record as 89%. Also, the “Fold increase h-GABA-A α5β3γ2 oocyte” value on h-GABA-A α5β3γ2 [2] (setting [5]) is 1.89.
In the same order, the values of `Cn1nnc(-c2ccc(Cl)cc2F)c1Cn1ncc(-c2cnn(C3CC3)c2)cc1=O` [Example 67, 2-((5-(4-chloro-2-fluoro-phenyl)-3-methyl-triazol-4-yl)methyl)-5-(1-cyclopropylpyrazol-4-yl)pyridazin-3-one] are 0.011 µM, 55% and 1.55.
In the same order, the values of `CC(C)N1CCN(c2cnn(Cc3c(-c4ccc(C(F)(F)F)cc4F)nnn3C)c(=O)c2)C[C@@H]1C` [Example 94, 2-[[5-[2-fluoro-4-(trifluoromethyl)phenyl]-3-methyl-triazol-4-yl]methyl]-5-[(3S)-4-isopropyl-3-methyl-piperazin-1-yl]pyridazin-3-one] are 0.0104 µM, 127% and 2.27.
